The values below come from patent US8153819B2, “Fungicidal mixtures comprising substituted 1-methylpyrazol-4-ylcarboxanilides” (BASF SE, priority 2005, dated 2012).

The term melting point denotes the temperature, or range, at which the solid turns liquid.

Data set [1] deals with Puccinia recondita. Put plainly: Curative activity against brown rust of wheat caused by Puccinia recondita. The class given is in vivo. Conditions: curative spray 1 day after inoculation, read after 7 days. Here is the method:
(§1) The active compounds, separately or jointly, were prepared as a stock solution comprising 25 mg of active compound which was made up to 10 ml using a mixture of acetone and/or dimethyl sulfoxide and the emulsifier Uniperol® EL (wetting agent having an emulsifying and dispersing action based on ethoxylated alkylphenols) in a ratio by volume of solvent/emulsifier of 99:1. The mixture was then made up to 100 ml with water. This stock solution was diluted with the solvent/emulsifier/water mixture described to give the concentration of active compound stated below.
(§2) As an alternative, the active compounds epoxiconazole, triticonazole and pyraclostrobin were used as commercially available ready-to-use formulation and diluted to the specified active compound concentration with water.
(§3) The visually determined percentages of infected leaf areas were converted into efficacies in % of the untreated control:
(§4) The efficacy (E) is calculated as follows using Abbot's formula: E=(1−α/β)·100 α corresponds to the fungicidal infection of the treated plants in % and β corresponds to the fungicidal infection of the untreated (control) plants in %
(§5) An efficacy of 0 means that the infection level of the treated plants corresponds to that of the untreated control plants; an efficacy of 100 means that the treated plants are not infected.
(§6) The expected efficacies of active compound combinations were determined using Colby's formula (Colby, S. R. “Calculating synergistic and antagonistic responses of herbicide combinations”, Weeds, 15, 20-22, 1967) and compared with the observed efficacies.
(§7) Colby's formula: E=x+y−x·y/100 • E expected efficacy, expressed in % of the untreated control, when using the mixture of the active compounds A and B at the concentrations a and b; • x efficacy, expressed in % of the untreated control, when using the active compound A at the concentration a; • y efficacy, expressed in % of the untreated control, when using the active compound B at the concentration b.
Leaves of potted wheat seedlings of the cultivar “Kanzler” were inoculated with a spore suspension of brown rust (Puccinia recondita). The pots were then placed in a chamber with high atmospheric humidity (90 to 95%) and 20 to 22° C. for 24 hours. During this time, the spores germinated and the germ tubes penetrated into the leaf tissue. The next day, the infected plants were sprayed to runoff point with the above-described active compound solution having the active compound concentration stated below. After the spray coating had dried on, the test plants were cultivated in a greenhouse at temperatures between 20 and 22° C. and 65 to 70% relative atmospheric humidity for 7 days. The extent of the rust fungal development on the leaves was then determined.

Data set [2] relates to Pyrenophora [syn. Drechslera] teres. In words: Activity against net blotch of barley caused by Pyrenophora teres, 1 day protective application. The format is in vivo. Conditions: barley seedlings sprayed 24 h before inoculation, read after 6 days, efficacy in % of untreated control (Abbot). How it is done: as §1, §2, §3
The efficacy (E) is calculated as follows using Abbot's formula: E=(1−α/β)·100 α corresponds to the fungicidal infection of the treated plants in % and β corresponds to the fungicidal infection of the untreated (control) plants in % […]
(§8) The expected efficacies of active compound combinations were determined using Colby's formula (Colby, S. R. “Calculating synergistic and antagonistic responses of herbicide combinations”, Weeds, 15, 20-22, 1967) and compared with the observed efficacies. […]

Data set [3] deals with Botrytis cinerea. In words: Activity against gray mold on bell pepper leaves caused by Botrytis cinerea, 1 day protective application. The format is in vivo. To be noted: 1 day protective spray, read after 5 days. How it is done:
as §1, §2, §3, §4, §5, §6, §7
Bell pepper seedlings of the cultivar “Neusiedler Ideal Elite” were, after 2-3 leaves were well developed, sprayed to runoff point with an aqueous suspension in the active compound concentration specified below. The next day, the treated plants were inoculated with a spore suspension of Botrytis cinerea which contained 1.7×10^6 spores/ml in a 2% strength aqueous biomalt solution. The test plants were then placed in a climatized chamber at 22 to 24° C., darkness and high atmospheric humidity. After 5 days, the extent of the fungal infection on the leaves could be determined visually in %.

For data set [4], the system named is Alternaria solani. In words: Activity against early blight of tomato caused by Alternaria solani (protective spray). The format is in vivo. To be noted: tomato leaves sprayed 1 day before infection, read after 5 days, efficacy in % of untreated control (Abbot). How it is done: as §1, §2, §3, §4, §5, §8
Leaves of potted tomato plants were sprayed to runoff point with an aqueous suspension having the active compound concentration stated below. […] After 5 days, the disease on the untreated but infected control plants had developed to such an extent that the infection could be determined visually in %.

As to `Fc1ccc([C@]2(Cn3cncn3)O[C@H]2c2ccccc2Cl)cc1` (racemic) [epoxiconazole, (2RS,3SR)-1-[3-(2-chlorophenyl)-2,3-epoxy-2-(4-fluorophenyl)propyl]-1H-1,2,4-triazole, reference compound], the “Observed activity (% infection)” value in data set [1] (0.063 mg/l) and in data set [2] (0.063 mg/l) was 0% throughout.

Turning to `CC1CCN(c2c(-c3c(F)cc(F)cc3F)c(Cl)nc3ncnn23)CC1` [5-chloro-7-(4-methyl-piperidin-1-yl)-6-(2,4,6-trifluorophenyl)-[1,2,4]tri-azolo[1,5-a]pyrimidine], in data set [1] (4 mg/l), the “Observed activity (% infection)” value stood at 40%. In the case of `Cn1cc(C(=O)Nc2ccccc2-c2cc(F)c(F)c(F)c2)c(C(F)F)n1` [No. Id.344, N-(3′,4′,5′-trifluorobiphenyl-2-yl)-3-difluoromethyl-1-methyl-1H-pyrazole-4-carboxamide], the figures for the “Observed activity (% infection)” value in data set [3] (1 mg/l), in data set [1] (1 mg/l) and in data set [2] (0.25 mg/l) were 40%, 0% and 67%, respectively. Take `Cn1cc(C(=O)Nc2ccccc2-c2cc(F)c(F)c(F)c2)c(CF)n1` [No. Ig. 344, N-(3′,4′,5′-trifluorobiphenyl-2-yl)-3-fluoromethyl-1-methyl-1H-pyrazole-4-carboxamide]: the melting point lay within 152 to 156 °C. `Cn1nc(Cl)c(C(=O)Nc2ccccc2-c2cc(F)c(F)c(F)c2)c1C(F)F` [No. Ih. 344, N-(3′,4′,5′-trifluorobiphenyl-2-yl)-3-chlorodifluoromethyl-1-methyl-1H-pyrazole-4-carboxamide] had a melting point of 158 to 161 °C. Same read-out and setting: to `Cn1nc(Cl)c(C(=O)Nc2ccccc2-c2cc(F)c(F)c(F)c2)c1CF` [No. Ij. 344, N-(3′,4′,5′-trifluorobiphenyl-2-yl)-3-chlorofluoromethyl-1-methyl-1H-pyrazole-4-carboxamide] belongs 154 to 157 °C.

With `N#Cc1c(Cl)c(Cl)c(Cl)c(C#N)c1Cl` [chlorthalonil, 2,4,5,6-tetrachloroisophthalonitrile, reference compound], the “Observed activity (% infection)” value in data set [4] (63 mg/l) and in data set [1] (16 mg/l) was 0% each time.

For `COc1ccc(C(=CC(=O)N2CCOCC2)c2ccc(Cl)cc2)cc1OC` [dimethomorph], the “Observed activity (% infection)” value in data set [3] (4 mg/l), in data set [3] (16 mg/l) and in data set [3] (63 mg/l) was 0% each time. Turning to `COc1cc(C)c(C(=O)c2c(OC)ccc(Br)c2C)c(OC)c1OC` [metrafenone], the “Observed activity (% infection)” value in data set [3] (4 mg/l), in data set [3] (16 mg/l) and in data set [3] (63 mg/l) was 0% in each case. As for `COC(=O)N(OC)c1ccccc1COc1ccn(-c2ccc(Cl)cc2)n1` [pyraclostrobin, methyl N-{2-[1-(4-chlorophenyl)-1H-pyrazol-3-yloxymethyl]phenyl}(N-methoxy)carbamate, reference compound], the “Observed activity (% infection)” value in data set [4] (4 mg/l) was found to be 50%; in data set [1] (1 mg/l), 0%. Regarding `CC1(C)CCC(=Cc2ccc(Cl)cc2)C1(O)Cn1cncn1` (centres unmarked) [triticonazole], the “Observed activity (% infection)” value in data set [3] (4 mg/l) and in data set [1] (1 mg/l) was 0% each time. As to “zinc ammoniate ethylenebis(dithiocarbamate) [metiram, reference compound]”, the “Observed activity (% infection)” value in data set [4] (63 mg/l) and in data set [3] (16 mg/l) was 0% each time.
